According to US9796662B2 (priority 2010, dated 2017):

Row | SMILES | Emulsion stability, mL separation, 1 h, Adjuvant [mL] | Emulsion stability, mL separation, 1 h, Anionic [mL] | Emulsion stability, mL separation, 1 h, Nonionic [mL] | Emulsion stability, mL separation, 24 h, Adjuvant [mL] | Emulsion stability, mL separation, 24 h, Anionic [mL] | Emulsion stability, mL separation, 24 h, Nonionic [mL]
1 | CC/C=C/CCCCCCCC(=O)OCC[N+](C)(C)C [C12-7, C12 DMEA Ester Quat] | 0 | 0 | 0 | 0 | 0 | 0
2 | C=CCCCCCCCC(=O)OCC[N+](C)(C)C [C10-7, C10 DMEA Ester Quat] | 0 | 0 | 0 | 0 | 0 | 0
3 | C[N+](C)(C)CCOC(=O)CCCCCCC/C=C/CCCCCCCC(=O)OCC[N+](C)(C)C [Mix-16, C18 diMEA DiQuat] | 0.25 | 0 |  | 0.25 | 0 | 
